Data from patent US10233152B2, “LSD1 inhibitors” (Mirati Therapeutics, Inc., priority 2015, dated 2019).
pIC50: −log10 of the molar value.

Assays:
[1] = test system: MV4-11 cells; assay: Inhibition of LSD1-mediated cell proliferation, CellTiter Glo luminescence assay; conditions: Homo sapiens, MV4-11, 168 h, read-out: Inhibition of LSD1-mediated Cell Proliferation IC50
Procedure: Inhibition of LSD1-mediated cellular proliferation by compounds of Formula (I) or Formula (II) was measured in a CellTiter Glo luminescence assay (Promega Corp), which determines the number of viable cells by quantitating the amount of ATP, using a BMG LabTech CLARIOStar instrument in accordance with the manufacturer's instructions. […] The plates were incubated at 37° C. for four days and thereafter 50 μl fresh medium containing the same concentration of test compound was added. The plates were incubated for an additional three days (Day 7). A baseline measurement, as described below, was taken for a time zero point at Day 0.
At Day 7, the supernatant was removed by aspiration and the plate was allowed to equilibrate to room temperature (˜15 min). The cells were lysed using 45 μl (30 μl for Day 0) of Cell Titer Glo reagent (Promega Corp). The plates were shaken for two minutes and incubated at room temperature for 30 minutes. The degree of inhibition of cell viability was determined using a spectrophotometric readout by measuring the luminescence at 340 nm and the EC50 concentration for each compound was calculated using Graph Pad Prism 4 software.

[2] = biological target: purified N-terminal truncated human LSD1 enzyme (aa 151-852) (Homo sapiens (Human), UniProt O60341); assay: LSD1 fluorescence coupling enzymatic assay (horseradish peroxidase/Amplex Red); format: biochemical; conditions: 50 nM LSD1, 30 min pre-incubation, histone 3.3 peptide (aa 1-21), 10-point dose-response; read-out: Inhibition of LSD1 Activity IC50
Procedure: Briefly, compounds of the present invention were solubilized in DMSO and a series of 10, three-fold serial dilutions were made for each compound in 15% DMSO. The initial starting concentration for the serial dilutions of each compound was 10 μM.
An aliquot of each serial dilution of test compound was added to a 96 well plate containing 50 nM purified N-truncated LSD1 enzyme (RBC Cat# PDM-11-350), 50 mM Tris-HCl, pH 7.5, 0.05% CHAPS and 1% DMSO in a 10 microliter reaction volume. The plate was pre-incubated at room temperature for 30 min to which 10 M of histone 3.3 peptide (aa 1-21) was added to initiate the enzymatic reaction. The reaction mixture was incubated at room temperature for one hour. […] The IC50 value for each compound was determined from each 10-point dose-response curve using GraphPad Prism 4 software with a sigmodial dose response.

SMILES | pIC50 [1] | pIC50 [2]
C[N+]1(CCOc2ccc(CC(=O)NS(C)(=O)=O)cc2)CC(CN[C@@H]2C[C@H]2c2ccccc2)C1 (stereo partly drawn) [Example 98] | < 6.00 | –
Brc1ccc(NCCN2CCC(N[C@@H]3C[C@H]3c3ccccc3)CC2)cc1 [Example 33, 1-(2-((4-bromophenyl)amino)ethyl)-N-((1R,2S)-2-phenylcyclopropyl)piperidin-4-amine] | > 9.00 | > 9.00
